Species: Rattus norvegicus
Test: DrugMatrix - Regimen: Daily Repeat
Type: toxicity, organism-based, Sprague-Dawley
Set-up: regimen Daily Repeat, gender Male, age 6-8 weeks
Conditions: in vivo, po, route oral GAVAGE, vehicle .5 % CMC; for ABSOLUTE BASOPHIL / ABSOLUTE EOSINOPHIL / ABSOLUTE LYMPHOCYTE / ABSOLUTE SEGMENTED NEUTROPHIL / BASOPHIL / EOSINOPHIL / ERYTHROCYTE COUNT / HEMATOCRIT / LYMPHOCYTE / MEAN CORPUSCULAR HEMOGLOBIN / MEAN CORPUSCULAR HEMOGLOBIN CONCENTRATION / MEAN CORPUSCULAR VOLUME / MONOCYTE / NEUTROPHIL / NUCLEATED RED BLOOD CELLS / PLATELET COUNT / LEUKOCYTE COUNT: tissue Blood; for ALANINE AMINOTRANSFERASE / ALBUMIN / ALKALINE PHOSPHATASE / ASPARTATE AMINOTRANSFERASE / BLOOD UREA NITROGEN / CARBON DIOXIDE / CHLORIDE / CHOLESTEROL / CREATINE PHOSPHOKINASE / CREATININE / GLUCOSE / LACTATE DEHYDROGENASE / PHOSPHORUS / POTASSIUM / SODIUM / TOTAL BILIRUBIN / TOTAL PROTEIN / URIC ACID: tissue Plasma
[1] = 0 mg/kg, 72 h, dose level Control, time 3 day
[2] = 0 mg/kg, 120 h, dose level Control, time 5 day
[3] = 3 mg/kg, 72 h, dose level Low, time 3 day
[4] = 3 mg/kg, 120 h, dose level Low, time 5 day

CCN(CC)CCOc1ccc(/C(=C(/Cl)c2ccccc2)c2ccccc2)cc1 [ENCLOMIPHENE]
ABSOLUTE BASOPHIL [1]: 0 CELLS/uL | ABSOLUTE EOSINOPHIL [1]: 222.83 CELLS/uL | ABSOLUTE LYMPHOCYTE [1]: 14453 CELLS/uL | ABSOLUTE SEGMENTED NEUTROPHIL [1]: 1490.83 CELLS/uL | BASOPHIL [1]: 0% | EOSINOPHIL [1]: 1.33% | ERYTHROCYTE COUNT [1]: 5.76 x10E6/uL | HEMATOCRIT [1]: 36.52% | LYMPHOCYTE [1]: 89.33% | MEAN CORPUSCULAR HEMOGLOBIN [1]: 23.37 pg | MEAN CORPUSCULAR HEMOGLOBIN CONCENTRATION [1]: 36.85 G/DL | MEAN CORPUSCULAR VOLUME [1]: 63.47 fL | MONOCYTE [1]: 0% | NEUTROPHIL [1]: 9.33% | NUCLEATED RED BLOOD CELLS [1]: 0 /100WBC | PLATELET COUNT [1]: 1239.5 x10E3/uL | ALANINE AMINOTRANSFERASE [1]: 43.83 u/L | ALBUMIN [1]: 4.27 G/DL | ALKALINE PHOSPHATASE [1]: 398.83 u/L | ASPARTATE AMINOTRANSFERASE [1]: 81.17 u/L | BLOOD UREA NITROGEN [1]: 17.67 mg/dL | CARBON DIOXIDE [1]: 27.5 mmol/L | CHLORIDE [1]: 99.17 MEQ/L | CHOLESTEROL [1]: 74 mg/dL | CREATINE PHOSPHOKINASE [1]: 331.5 u/L | CREATININE [1]: 0.2 mg/dL | GLUCOSE [1]: 171.33 mg/dL | LACTATE DEHYDROGENASE [1]: 241.67 u/L | PHOSPHORUS [1]: 12.25 mg/dL | POTASSIUM [1]: 6.33 MEQ/L | SODIUM [1]: 141.28 MEQ/L | TOTAL BILIRUBIN [1]: 0.15 mg/dL | TOTAL PROTEIN [1]: 5.98 G/DL | URIC ACID [1]: 1.63 mg/dL | ABSOLUTE BASOPHIL [2]: 0 CELLS/uL | ABSOLUTE EOSINOPHIL [2]: 148.67 CELLS/uL | ABSOLUTE LYMPHOCYTE [2]: 16020.5 CELLS/uL | ABSOLUTE SEGMENTED NEUTROPHIL [2]: 1468.33 CELLS/uL | BASOPHIL [2]: 0% | EOSINOPHIL [2]: 1% | ERYTHROCYTE COUNT [2]: 5.78 x10E6/uL | HEMATOCRIT [2]: 35.77% | LEUKOCYTE COUNT [2]: 17.67 x10E3/uL | LYMPHOCYTE [2]: 90.5% | MEAN CORPUSCULAR HEMOGLOBIN [2]: 23.22 pg | MEAN CORPUSCULAR HEMOGLOBIN CONCENTRATION [2]: 37.47 G/DL | MEAN CORPUSCULAR VOLUME [2]: 61.92 fL | MONOCYTE [2]: 0.17% | NEUTROPHIL [2]: 8.33% | NUCLEATED RED BLOOD CELLS [2]: 0.17 /100WBC | PLATELET COUNT [2]: 1255.5 x10E3/uL | ALANINE AMINOTRANSFERASE [2]: 46.5 u/L | ALBUMIN [2]: 4.38 G/DL | ALKALINE PHOSPHATASE [2]: 336 u/L | ASPARTATE AMINOTRANSFERASE [2]: 76.5 u/L | BLOOD UREA NITROGEN [2]: 20 mg/dL | CARBON DIOXIDE [2]: 27.5 mmol/L | CHLORIDE [2]: 101 MEQ/L | CHOLESTEROL [2]: 71.33 mg/dL | CREATINE PHOSPHOKINASE [2]: 231.83 u/L | CREATININE [2]: 0.37 mg/dL | GLUCOSE [2]: 168.83 mg/dL | LACTATE DEHYDROGENASE [2]: 174 u/L | PHOSPHORUS [2]: 11.48 mg/dL | POTASSIUM [2]: 6.82 MEQ/L | SODIUM [2]: 143.8 MEQ/L | TOTAL BILIRUBIN [2]: 0.2 mg/dL | TOTAL PROTEIN [2]: 5.98 G/DL | URIC ACID [2]: 1.83 mg/dL | ABSOLUTE BASOPHIL [3]: 0 CELLS/uL | ABSOLUTE EOSINOPHIL [3]: 54.33 CELLS/uL | ABSOLUTE LYMPHOCYTE [3]: 13020.67 CELLS/uL | ABSOLUTE SEGMENTED NEUTROPHIL [3]: 996.33 CELLS/uL | BASOPHIL [3]: 0% | EOSINOPHIL [3]: 0.33% | ERYTHROCYTE COUNT [3]: 5.87 x10E6/uL | HEMATOCRIT [3]: 35.93% | LEUKOCYTE COUNT [3]: 14.23 x10E3/uL | LYMPHOCYTE [3]: 91.67% | MEAN CORPUSCULAR HEMOGLOBIN [3]: 24.23 pg | MEAN CORPUSCULAR HEMOGLOBIN CONCENTRATION [3]: 39.57 G/DL | MEAN CORPUSCULAR VOLUME [3]: 61.2 fL | MONOCYTE [3]: 1% | NEUTROPHIL [3]: 7% | NUCLEATED RED BLOOD CELLS [3]: 0 /100WBC | PLATELET COUNT [3]: 1129 x10E3/uL | ALANINE AMINOTRANSFERASE [3]: 57.33 u/L | ALBUMIN [3]: 4.5 G/DL | ALKALINE PHOSPHATASE [3]: 614.33 u/L | ASPARTATE AMINOTRANSFERASE [3]: 88 u/L | BLOOD UREA NITROGEN [3]: 13.67 mg/dL | CARBON DIOXIDE [3]: 25.33 mmol/L | CHLORIDE [3]: 105.67 MEQ/L | CHOLESTEROL [3]: 37 mg/dL | CREATINE PHOSPHOKINASE [3]: 178 u/L | CREATININE [3]: 0.16 mg/dL | GLUCOSE [3]: 148 mg/dL | LACTATE DEHYDROGENASE [3]: 196.67 u/L | PHOSPHORUS [3]: 13.37 mg/dL | POTASSIUM [3]: 6.75 MEQ/L | SODIUM [3]: 151.6 MEQ/L | TOTAL BILIRUBIN [3]: 0.2 mg/dL | TOTAL PROTEIN [3]: 6.17 G/DL | URIC ACID [3]: 1.43 mg/dL | ABSOLUTE BASOPHIL [4]: 0 CELLS/uL | ABSOLUTE EOSINOPHIL [4]: 38.33 CELLS/uL | ABSOLUTE LYMPHOCYTE [4]: 13151.33 CELLS/uL | ABSOLUTE SEGMENTED NEUTROPHIL [4]: 736.67 CELLS/uL | BASOPHIL [4]: 0% | EOSINOPHIL [4]: 0.33% | ERYTHROCYTE COUNT [4]: 6.2 x10E6/uL | HEMATOCRIT [4]: 39.87% | LEUKOCYTE COUNT [4]: 14.1 x10E3/uL | LYMPHOCYTE [4]: 93.33% | MEAN CORPUSCULAR HEMOGLOBIN [4]: 24.13 pg | MEAN CORPUSCULAR HEMOGLOBIN CONCENTRATION [4]: 37.57 G/DL | MEAN CORPUSCULAR VOLUME [4]: 64.33 fL | MONOCYTE [4]: 1% | NEUTROPHIL [4]: 5.33% | NUCLEATED RED BLOOD CELLS [4]: 0 /100WBC | PLATELET COUNT [4]: 1362.67 x10E3/uL | ALANINE AMINOTRANSFERASE [4]: 51.67 u/L
